{"source": "patent US20230323355A1", "about": "(priority 2020, published 2023)", "tested_on": "SARS-CoV-2 Wuhan virus (SARS-CoV-2-WA1 2020)", "assay": "microbe, parasite or virus in culture", "type": "cell-based", "data": [{"smiles": "CCC(CC)COC(=O)[C@H](C)N[P@](=O)(OC[C@H]1O[C@@](C#N)(c2ccc3c(N)ncnn23)[C@H](O)[C@@H]1O)Oc1ccccc1", "note": "[Remdesivir]", "values": [{"measurement": "fold reduction in SARS-CoV-2 replication", "value": 1.5, "unit": "fold"}, {"measurement": "inhibition of SARS-CoV-2 Wuhan", "value": "did not inhibit"}, {"measurement": "EC50", "setting": "Severe acute respiratory syndrome coronavirus 2, Vero C1008", "value": "~800", "unit": "nM"}]}]}
